In ChEMBL document CHEMBL1201862, “PubChem BioAssay data set” (2004):
The source made the active and inactive calls.

Columns and labels:
[1] = target: T1, Replicative DNA helicase DnaB (Mycobacterium tuberculosis, UniProt P9WMR3); test: DnaB intein splicing inhibitors, dose response, biochemical, cell-free fluorescence (AID 449749); type: functional
T1 sequence (P9WMR3 whole entry): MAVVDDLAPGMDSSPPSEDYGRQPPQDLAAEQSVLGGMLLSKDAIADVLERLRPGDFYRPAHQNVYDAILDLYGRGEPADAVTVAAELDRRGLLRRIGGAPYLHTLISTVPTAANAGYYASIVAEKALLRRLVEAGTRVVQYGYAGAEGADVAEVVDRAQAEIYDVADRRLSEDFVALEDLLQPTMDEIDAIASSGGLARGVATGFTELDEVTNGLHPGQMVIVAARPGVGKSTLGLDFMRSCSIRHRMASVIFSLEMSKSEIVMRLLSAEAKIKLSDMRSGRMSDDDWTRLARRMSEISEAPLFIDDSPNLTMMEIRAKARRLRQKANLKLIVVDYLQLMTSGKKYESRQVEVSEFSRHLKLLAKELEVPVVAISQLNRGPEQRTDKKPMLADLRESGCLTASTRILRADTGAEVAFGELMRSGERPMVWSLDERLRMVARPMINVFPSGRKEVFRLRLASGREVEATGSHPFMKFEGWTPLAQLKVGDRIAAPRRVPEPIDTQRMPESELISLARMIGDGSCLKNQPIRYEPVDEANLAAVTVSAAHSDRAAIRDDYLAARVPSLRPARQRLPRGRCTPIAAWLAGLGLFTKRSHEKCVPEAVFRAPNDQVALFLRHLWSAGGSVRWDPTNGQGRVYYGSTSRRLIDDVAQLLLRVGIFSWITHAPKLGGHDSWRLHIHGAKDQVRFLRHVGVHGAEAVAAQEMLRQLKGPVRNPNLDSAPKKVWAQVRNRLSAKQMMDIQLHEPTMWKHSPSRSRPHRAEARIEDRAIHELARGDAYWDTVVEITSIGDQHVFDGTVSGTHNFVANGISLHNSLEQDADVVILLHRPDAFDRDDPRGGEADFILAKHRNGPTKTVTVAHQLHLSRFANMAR

[2] = target: T2, Protein RecA (Mycobacterium tuberculosis, UniProt P9WHJ3); test: Fluorescence Cell-Free Homogeneous Dose Retest to Identify Inhibitors of RecA-Intein Splicing Activity. [Related pubchem assays (depositor defined):AID2097, AID2223, AID489010, AID492950]; type: functional
T2 sequence (P9WHJ3 whole entry): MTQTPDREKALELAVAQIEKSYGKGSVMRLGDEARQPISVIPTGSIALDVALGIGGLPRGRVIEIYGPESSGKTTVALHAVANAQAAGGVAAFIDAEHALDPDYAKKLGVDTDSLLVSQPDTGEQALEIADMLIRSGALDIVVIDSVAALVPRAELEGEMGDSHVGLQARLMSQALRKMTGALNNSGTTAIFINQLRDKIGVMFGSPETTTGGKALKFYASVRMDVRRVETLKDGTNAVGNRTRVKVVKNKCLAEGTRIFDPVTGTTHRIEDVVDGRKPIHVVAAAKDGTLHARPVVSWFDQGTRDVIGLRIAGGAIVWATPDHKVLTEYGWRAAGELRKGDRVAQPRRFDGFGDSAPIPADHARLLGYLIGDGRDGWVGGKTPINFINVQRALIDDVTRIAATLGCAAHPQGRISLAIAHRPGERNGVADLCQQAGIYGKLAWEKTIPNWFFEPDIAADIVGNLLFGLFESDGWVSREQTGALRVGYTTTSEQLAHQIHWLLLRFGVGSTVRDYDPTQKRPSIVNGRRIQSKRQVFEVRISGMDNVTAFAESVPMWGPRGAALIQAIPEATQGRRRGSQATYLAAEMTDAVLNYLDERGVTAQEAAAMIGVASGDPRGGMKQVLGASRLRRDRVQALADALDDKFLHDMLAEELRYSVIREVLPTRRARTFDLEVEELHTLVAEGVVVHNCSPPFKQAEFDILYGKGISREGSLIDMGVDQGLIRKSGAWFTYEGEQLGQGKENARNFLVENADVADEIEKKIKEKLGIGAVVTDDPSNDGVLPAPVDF

[3] = HEp-2 cell cytotoxicity, dose response, cytotoxicity control for RSV inhibitor project, HTS (AID 2410); type: functional; conditions: human respiratory syncytial virus
[4] = Shn3 3'UTR reporter inhibitors, dose response, cell-based, Clone20 osteoblasts, firefly luciferase, cherry-picked (AID 624132); type: functional;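 further: firefly luciferase luminescence from reporter carrying the Shn3 3'UTR in osteoblasts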
[5] = control 3'UTR Renilla luciferase suppression, dose response, counter-screen for Shn3 inhibitor project, cell-based, Clone20-Shn3RL, cherry-picked (AID 624133); type: functional
[6] = test system: Streptococcus sp. 'group A'; test: growth inhibition of control SK(-) GAS strain, dose response, counter-screen for streptokinase expression inhibitor project, luminescence, kanamycin, BacTiterGlo, confirmation (AID 1900); type: functional, organism-based
[7] = target: T3, Streptokinase A (Streptococcus pyogenes serotype M1, UniProt P10520); test: S. pyogenes streptokinase expression inhibitors, potency, dose response, plasminogen activation absorbance, OD405 (AID 1914); type: functional, Streptococcus pyogenes M1 GAS;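 further: secreted streptokinase activity via plasminogen activation per viability signal from cell pellet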
T3 sequence (P10520 whole entry): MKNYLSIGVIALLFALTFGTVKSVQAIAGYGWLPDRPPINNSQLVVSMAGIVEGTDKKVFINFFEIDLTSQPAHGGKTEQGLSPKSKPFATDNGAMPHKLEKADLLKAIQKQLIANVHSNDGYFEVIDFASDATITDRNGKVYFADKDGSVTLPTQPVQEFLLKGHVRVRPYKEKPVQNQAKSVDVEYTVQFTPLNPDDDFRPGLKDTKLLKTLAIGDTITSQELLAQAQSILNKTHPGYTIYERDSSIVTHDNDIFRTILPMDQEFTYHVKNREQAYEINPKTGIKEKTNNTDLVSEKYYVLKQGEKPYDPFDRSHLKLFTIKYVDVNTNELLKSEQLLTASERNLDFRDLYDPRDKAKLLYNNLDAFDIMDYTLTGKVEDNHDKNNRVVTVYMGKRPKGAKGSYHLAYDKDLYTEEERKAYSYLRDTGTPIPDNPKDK

[8] = test system: Streptococcus; test: Group A Streptococcus viability loss, dose response, counter-screen for streptokinase expression inhibitor project, luminescence, BacTiterGlo (AID 1915); type: functional, organism-based;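 further: potency for reduction of bacterial viability or growth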
[9] = target: T4, Protein skinhead-1 (Caenorhabditis elegans, UniProt P34707); type: functional
T4 sequence (P34707 whole entry): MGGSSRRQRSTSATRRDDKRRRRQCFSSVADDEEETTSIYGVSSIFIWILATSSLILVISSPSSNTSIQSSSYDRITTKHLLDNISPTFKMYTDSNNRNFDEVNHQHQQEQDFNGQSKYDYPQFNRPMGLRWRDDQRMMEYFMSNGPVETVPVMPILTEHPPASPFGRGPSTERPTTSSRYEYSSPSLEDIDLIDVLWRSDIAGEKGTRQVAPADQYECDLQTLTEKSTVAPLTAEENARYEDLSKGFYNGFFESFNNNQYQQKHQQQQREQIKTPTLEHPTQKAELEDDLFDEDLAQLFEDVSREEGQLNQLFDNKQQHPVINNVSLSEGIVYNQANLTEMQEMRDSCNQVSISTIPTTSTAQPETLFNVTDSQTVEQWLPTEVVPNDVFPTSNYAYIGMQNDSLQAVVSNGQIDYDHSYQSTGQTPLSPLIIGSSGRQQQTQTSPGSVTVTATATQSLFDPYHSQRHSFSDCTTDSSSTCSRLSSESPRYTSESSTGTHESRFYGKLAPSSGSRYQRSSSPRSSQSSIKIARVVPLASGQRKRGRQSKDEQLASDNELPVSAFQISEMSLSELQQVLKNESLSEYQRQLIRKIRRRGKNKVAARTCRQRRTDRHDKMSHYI

[10] = Luminescence Cell-Based Dose Response HTS to Identify Activators of Luciferase Translation or Activity in H4 […] Cells. [Related pubchem assays: 1829 (Project Summary), 1814 (Primary HTS)]; type: functional
[11] = test system: H4; test: Luminescence Cell-Based Dose Response HTS to Identify Activators of 5'UTR Stem-Loop Driven Prion Protein mRNA Translation in H4 Neuroglioblastoma Cells. [Related pubchem assays: 1829 (Project Summary), 1814 (Primary HTS)]; type: functional; conditions: Homo sapiens

O=C(NC1CCCC1)C(c1ccc(F)cc1)N(Cc1ccc(F)cc1)C(=O)CCl (centres undefined)
AC50 [1]: 4.67 µM (active)
EC50 [2]: 0.557 µM (active)

CC(=O)C(C)Oc1ccc2c3c(c(=O)oc2c1)CCCC3 (centres undefined)
CC50 [3]: 31.8 µM (active)

O=C(Nc1ccc(S(=O)(=O)N2CCCCC2)cc1)C1CC(=O)N(c2ccc(Cl)cc2)C1 (centres undefined)
CC50 [3]: 19.9 µM (active)

COc1cccc(NC(=O)Nc2nnc(N3C(C)CCCC3C)s2)c1 (centres undefined)
CC50 [3]: > 50 µM (active)

CCOC(=O)C1CCN(C(=O)c2sc3nc(C)nc(N4CCC(C)CC4)c3c2C)CC1
AC50 [4]: 5.26 µM (active)
AC50 [5]: 9.01 µM (active)

O=C(Nc1ccc2ccccc2c1)c1ccc(NS(=O)(=O)c2ccc(Br)s2)cc1
CC50 [3]: > 50 µM (active)
EC50 [6]: 2 µM (active)
EC50 [7]: > 150 µM (not active)
EC50 [8]: 5.03 µM (active)

COc1ccc(C2=NN(c3nc(C)cc(C)n3)C(=O)C2)cc1
AC50 [1]: 4.53 µM (active)
EC50 [2]: 2.81 µM (active)

Cc1c(NC(=O)/C(C#N)=C/c2ccc(-c3ccc(Cl)c(Cl)c3)o2)c(=O)n(-c2ccccc2)n1C
CC50 [3]: 13.3 µM (active)
IC50 [9]: > 100 µM (inactive)

Cc1ccccc1C1CCCN(C(=O)c2cc(COc3c(F)cccc3F)on2)C1 (centres undefined)
CC50 [3]: 21.6 µM (active)

O=[N+]([O-])c1cccc(-c2c(-c3ccccc3)ncc3cc(F)ccc23)c1
IC50 [9]: 88.7 µM (inactive)

Clc1ccccc1-c1ncc(-c2ccccc2)o1
IC50 [9]: 37.3 µM (active)

C[C@@H]1CC=C[C@H]2[C@H]1C(=O)N(Cc1ccccc1)[C@H]2c1ccc(C(F)(F)F)cc1
AC50 [1]: 22.3 µM (active)
EC50 [2]: 87 µM (active)

COCCn1cnnc1SCC(=O)Nc1cccc(S(=O)(=O)N2CCCCC2)c1
IC50 [9]: > 100 µM (inactive)

CC1(c2ccccc2)ON(c2ccccc2C(F)(F)F)C1=O (centres undefined)
CC50 [3]: 49.9 µM (active)

Cc1n[nH]c2c1C(CCc1ccccc1)C(C#N)=C(N)O2 (centres undefined)
AC50 [1]: 24.9 µM (active)
EC50 [2]: 6.58 µM (active)

Cc1ccc2sc3ccc(NC(=O)c4ccccc4Cl)cc3c(=O)c2c1
CC50 [3]: 15.9 µM (active)

Cc1ccc(OCCn2cc(C#N)c3ccccc32)cc1
CC50 [3]: 28.8 µM (active)

COc1ccc2ccc3c(c2c1)N=C[C@]1(O3)N(C)c2ccccc2C1(C)C
EC50 [6]: 35.4 µM (active)
EC50 [7]: 3.17 µM (active)
EC50 [8]: > 150 µM (not active)
AC50 [1]: > 380 µM (inactive)
EC50 [2]: 3.66 µM (active)

CC1CCc2c(sc3nc(CSc4nc[nH]n4)nc(O)c23)C1 (centres undefined)
CC50 [3]: 24.2 µM (active)

O=c1cc(C2CCNCC2)[nH][nH]1
AC50 [1]: 3.73 µM (active)
EC50 [2]: 1.41 µM (active)

COc1ccc(Br)cc1CN(C)CC(O)COc1ccc(Br)cc1 (centres undefined)
IC50 [9]: > 100 µM (inactive)

O=C1/C(=C/c2cccs2)CCc2ccccc21
IC50 [9]: 18.6 µM (active)

CCOc1ccc2cc(/C=C/C(=O)c3ccco3)c(Cl)nc2c1
CC50 [3]: 47.7 µM (active)

CCCCOc1ccc(C(=O)NC)cc1
IC50 [9]: > 100 µM (inactive)

COc1ccc(-n2c(=O)c3ccccc3c3ccccc3c2=O)cc1
AC50 [1]: 10.1 µM (active)
EC50 [2]: 23.3 µM (active)

Cc1cccc(C(C)(C)C)c1OCCN1CCCC1
AC50 [4]: 34.2 µM (active)
AC50 [5]: 9.87 µM (active)

O=c1c2ccccc2oc2ccc(Oc3ccccc3)cc12
IC50 [9]: 22.5 µM (active)

Cc1ccc(NC2=NC(=O)/C(=C\c3ccc(C)s3)S2)cc1
IC50 [9]: > 100 µM (inactive)

COc1ccccc1N(Cc1ccccc1)S(=O)(=O)c1cccc(C(=O)Nc2ccccn2)c1
CC50 [3]: 11.6 µM (active)

Cc1c(C(C)(C)O)[nH]c2ccc(C(F)(F)F)cc12
CC50 [3]: 33.8 µM (active)

O=C(CCN1C(=O)/C(=C/c2cccs2)SC1=S)Nc1cccc(O)c1
AC50 [1]: 1.64 µM (active)
EC50 [2]: 125 µM (active)

N#CC1(Nc2ccc(-c3ccc(Cl)cc3)cc2)CCCC1
IC50 [9]: 26.1 µM (active)

C=CCC1CCCCC1=C(C#N)c1ccccc1 (centres undefined)
IC50 [9]: > 100 µM (inactive)

Cc1[nH]n(C)c(=O)c1C(=O)c1c(-c2ccccc2Cl)noc1C
AC50 [1]: 6.51 µM (active)
EC50 [2]: 2.61 µM (active)

Cn1cc(/C=N\NC(=O)c2cccs2)c2ccccc21
EC50 [10]: 50.3 µM (active)
EC50 [11]: 37.7 µM (active)
